Measured values taken from patent US7897162B2, “Arthropod repellent pharmacophore models, compounds identified as fitting the pharmacophore models, and methods of making and using thereof” (The United States of America as represented by the …, priority 2003, dated 2011).

Experiments:
arthropod = conditions: Table 1, training set of 11 repellents; protection (repelling) time; cited from earlier work
arthropods [1] = experiment: Arthropod repellent test of short-listed compounds found by pharmacophore database search; type: in vivo; conditions: for Experimental PT: Table 3, compounds identified by database search; for repellent activity against arthropods (in words): short list of 138 compounds from in-house CIS screened
Text: As provided in Example 4, the pharmacophore model of the present invention was used to search three-dimensional multiconformer databases, including an in-house Chemical Information System (Chemical Information System, Division of Experimental Therapeutics, Walter Reed Army Institute of Research, Silver Spring, Md.), National Cancer Institute, IBS and Maybridge databases, to screen for potential new repellent agents. The Chemical Information System database has over 240,000 compounds and was transformed into a multiconformer database in CATALYST® using the catDB® utility program as implemented in the software. The catDB® format allows a molecule to be represented by a limited set of conformations thereby permitting conformational flexibility to be included during the search of the database.
Specifically, the three-dimensional pharmacophore of the present invention was used as a template for search various three-dimensional multi-conformer databases. Three-dimensional multi-conformer databases of molecules comprise all possible conformations of the three-dimensional structure of each molecule in the database within an energy range of 0 to 25 kcal/mol. The three-dimensional structures in the databases were mapped to or compared with the three-dimensional pharmacophore of the present invention to identify compounds having the same or similar three-dimensional conformations.
The compounds were short listed on the basis of their ADME (Absorption, Distribution, Metabolism, and Excretion) properties and were evaluated by rapid in silico screening using Cerus^2ADME methodology. See Cerius^2ADME. Accelrys Inc. (2003) San Diego, Calif. The short listed compounds were then tested for arthropod repellent property using methods known in the art. See e.g. Debboun, et al. (1999) J. Am. Mosq. Cont. Assoc. 15(3):342-347; and Gupta, R K and Rutledge, L C (1991) J. Am. Mosq. Cont. Assoc. 7:490-493, which are herein incorporated by reference.
Three-dimensional multiconformer databases, including an in-house Chemical Information System (Chemical Information System, Division of Experimental Therapeutics, Walter Reed Army Institute of Research, Silver Spring, Md.), National Cancer Institute, IBS and Maybridge databases, were screened for potential new repellent agents using the pharmacophore model of the present invention. The Chemical Information System database of the Division of Experimental Therapeutics, WRAIR is a database of more than 245,000 proprietary compounds. By using the catDB utility program of the CATALYST®, the database was transformed into a multi-conformer based 3D database. The database searching protocol in the CATALYST® involves a rapid 3D screening process followed by a rigorous atom-by-atom mapping in which a fairly comprehensive set of features including the chemical features of the pharmacophore are considered. In addition to the traditional pharmacophore based searching, 3D shape similarity and partial match searching may also be performed. See Kurogi, Y and Gunner, O F (2001) Current Medicinal Chemistry 8:1035-1055, which is herein incorporated by reference.

mosquitoes = conditions: cited from earlier work
white rats = conditions: cited from earlier work
arthropods [2] = conditions: under warm, humid conditions; cited from earlier work

CCOc1ccccc1C(=O)N(CC)CC
Experimental PT (arthropod): 0.5 h

CCCN(CCC)C(=O)COCc1ccccc1
Experimental PT (arthropod): 0.5 h

CCCCN1C(O)=CC(C)c2ccccc21 (centres unmarked)
Experimental PT (arthropod): 2.0 h

CCCN(CCC)C(=O)c1ccccc1OCC
Experimental PT (arthropod): 0.3 h

CCCCC(CC)(CO)CO
Experimental PT (arthropod): 1.7 h

CCCCON1CN(C)N(OCCCC)C1=O
Experimental PT (arthropod): 0.6 h

CCN(CC)C(=O)c1ccccc1Cl
Experimental PT (arthropod): 1.2 h

ClOc1c(Cl)c(Cl)c(Cl)c(Cl)c1Cl
Experimental PT (arthropod): 0.2 h

O=C(OCCCO)c1ccccc1
Experimental PT (arthropod): 7.5 h

CC(C)COC(=O)CC(O)C(=O)OCC(C)C (centres unmarked)
Experimental PT (arthropod): 2.5 h

CC(C)(Oc1ccccc1Cl)C(N)=O [2-(2-chloro-phenoxy)-2-methyl-propionamide]
Experimental PT (arthropods [1]): 2.6 h
repellent activity against arthropods (in words) (arthropods [1]): found to exhibit repellent activity against arthropods

C=CCSc1nccnc1C [2-allylsulfanyl-3-methyl-pyrazine]
Experimental PT (arthropods [1]): 1.6 h
repellent activity against arthropods (in words) (arthropods [1]): found to exhibit repellent activity against arthropods

COc1ccc(OC)c(C(=O)CBr)c1 [2-bromo-1-(2,5-dimethoxy-phenyl)-ethanone]
Experimental PT (arthropods [1]): 2.6 h
repellent activity against arthropods (in words) (arthropods [1]): found to exhibit repellent activity against arthropods

CCN(CC)C(=O)CC1CCCCC1 [2-cyclohexyl-N,N-diethylacetamide]
Experimental PT (arthropods [1]): 0.24 h

Cc1cc(C)c(C)c(C(=O)C(C)C)c1C [2-methyl-1-(2,3,5,6-tetramethyl-phenyl)-propan-1-one]
Experimental PT (arthropods [1]): 9.3 h
repellent activity against arthropods (in words) (arthropods [1]): found to exhibit repellent activity against arthropods

CCCCCCCCC(O)C1CCC(CCCCC(=O)O)O1 (centres unmarked) [5-[5-(1-hydroxy-nonyl)-tetrahydro-furan-2-yl]-pentanoic acid]
landing and feeding deterrence (mosquitoes): acts as a landing and feeding deterrent for mosquitoes

CCN(CC)C(=O)c1cccc(C)c1 [DEET, N,N-diethyl-m-toluamide]
toxicity on regular skin application (white rats): gonadotoxic and embryotoxic
Experimental PT (arthropod): 1.0 h
duration of application (arthropods [2]): 1 to 2 h

CCN(CC)C(=O)Cc1cccc(Br)c1 [N,N-diethyl-2-(3-bromo-phenyl)-acetamide]
Experimental PT (arthropods [1]): 0.63 h

CCN(CC)C(=O)Cc1cccc(C(F)(F)F)c1 [N,N-diethyl-2-(3-trifluoromethyl-phenyl)-acetamide]
Experimental PT (arthropods [1]): 0.14 h

CCN(CC)C(=O)c1cccc(C(F)(F)F)c1 [N,N-diethyl-3-trifluoromethyl-benzamide]
Experimental PT (arthropods [1]): 0.5 h
